Reference: US12195427B2, “MASP-2 inhibitors and methods of use” (priority 2018, dated 2025)

Target: MASP-2 CCP2-SP (Homo sapiens (Human), UniProt O00187)
Assay: MASP-2 co-crystallization, X-ray crystallography and structure analysis (H-bonds, van der Waals contacts);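 for Ligand-pharmacophore element distance, pharmacophore element C2: distance from averaged pharmacophore element to bound ligand; missing value means element absent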;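 for Ligand-pharmacophore element distance, pharmacophore element C3: distance from averaged pharmacophore element to bound ligand; missing value means element absent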;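 for Ligand-pharmacophore element distance, pharmacophore element C4: distance from averaged pharmacophore element to bound ligand; missing value means element absent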;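 for Ligand-pharmacophore element distance, pharmacophore element C5: distance from averaged pharmacophore element to bound ligand; missing value means element absent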
Set-up: van der Waals contact distance, MASP-2 HIS 483 atom CD2 / van der Waals contact distance, MASP-2 HIS 483 atom NE2 / van der Waals contact distance, SER 654 C to compound atom / van der Waals contact distance, SER 654 O to compound atom / van der Waals contact distance, TRP 655 C to compound atom / van der Waals contact distance, MASP-2 GLY 528 atom CA / van der Waals contact distance TRP 655 atom CZ3 / van der Waals contact distance TRP 655 atom N / van der Waals contact distance TRP 655 atom CE3 / van der Waals contact distance GLY 656 atom C / van der Waals contact distance GLY 656 atom CA / van der Waals contact distance GLY 656 atom O / van der Waals contact distance, MASP-2 TYR 607 atom CD1 / van der Waals contact distance, MASP-2 PRO 606 atom O / d(C3,CA1) / d(CA1,N1)2 / d(H4,O1) / d(H4,O2) / d(O1,O2) / d(CA1,O2) / d(CA6,O1) / d(CA6,O2) / d(CA1,C5) / d(O2,H3) / d(N2,C2) / d(CA5,N2) / d(N2,C4) / d(N2,C6) / d(N2,CA3) / d(N2,O3) / d(O4,H2): unit not given beside the values
Conditions: for Ligand-pharmacophore element distance, pharmacophore element C2 / Ligand-pharmacophore element distance, pharmacophore element C3 / Ligand-pharmacophore element distance, pharmacophore element C4 / Ligand-pharmacophore element distance, pharmacophore element C5 / Ligand-pharmacophore element distance, pharmacophore element C6 / Ligand-pharmacophore element distance, pharmacophore element C7 / Ligand-pharmacophore element distance, pharmacophore element CA1 / Ligand-pharmacophore element distance, pharmacophore element CA2 / Ligand-pharmacophore element distance, pharmacophore element CA3 / Ligand-pharmacophore element distance, pharmacophore element CA4 / Ligand-pharmacophore element distance, pharmacophore element CA5 / Ligand-pharmacophore element distance, pharmacophore element CA6: Table A4-1; for d(CA1,O1) / d(CA1,O2) / d(H4,O1) / d(H4,O2) / d(O1,O2): Table A5-1 pharmacophore: distance between elements, S2/S1 region; for a(CA1, O1, O2) / a(O1, O2, H4): Table A6-1 pharmacophore angle; for Pharmacophore torsion angle a(O1, O2, N2, CA2): Table A7-2; for Pharmacophore protein distance to MET_658 (first MET_658 column) / Pharmacophore protein distance to MET_658 (second MET_658 column) / Pharmacophore protein distance to GLY_528 / Pharmacophore protein distance to PHE_529 / Pharmacophore protein distance to PRO_608 / Pharmacophore protein distance to SER_611 / Pharmacophore protein distance to TRP_655: Table A8-6, nearest protein atom in cell to the left; for Pharmacophore protein distance to MET_658 (first MET_658 column): 6th residue column; for Pharmacophore protein distance to MET_658 (second MET_658 column): 9th residue column; for Pharmacophore protein distance to TRP_655: pharmacophore elements C6, CA3, O3, H1
Source text: This example illustrates the preparation of recombinant MASP-2 protein, based on UniProt O00187, human mannan-binding lectin serine protease 2. Expression constructs for human MASP-2 CCP2-SP and CCP2-SP-6HIS were generated for recombinant expression in E. coli cells.
Typically, crystallization hits were obtained by screening against […] 96-well crystallization reagent kits (GRAS6, GRAS2, Hampton Research; MORPHEUS, Molecular Dimensions; Wizard 1&2 Cryo, Rigaku Reagents) and crystal growth was inspected by optical microscopy. Crystals were used directly or further optimized for X-ray diffraction. Crystals were captured with cryogenic loops and dipped into liquid nitrogen directly or cryoprotected with a 20% glycerol in crystallization formulation before flash-cooling in liquid nitrogen.
Thereafter crystals are transferred once or twice for soaking within the crystallization solution containing the MASP-2 inhibitor.
Crystals were diffracted with synchrotron X-rays of […] and X-ray diffraction datasets were collected at beamlines SSRL BL9-2, BL14-1, BL12-2 as well as ALS sector 5 using Dectris Pilatus and Eiger detectors. Structures were determined by molecular replacement using portions of the structure 1Q3X as search models and partially refined with Buster 2.10.2 or Refmac 5.8. […] When multiple ligand poses were observed, for instance arising from multiple molecules in the asymmetric unit or refined dual poses within the same molecule, only one pose was selected and analyzed.
LigPlot+ calls these ‘nonbonded contacts’ or ‘hydrophobic contacts’. Despite the name, there are atom pairings that include possible H-bonds. Thus, in some instances, the Table A2 also contains H-bond interactions.

[1] = Table A5-2 pharmacophore distance, S3/S4 region
[2] = Table A7-1, between pharmacophore elements of the bound compound
[3] = between pharmacophore elements of the bound compound

MASP-2 CCP2-SP, sequence (O00187 445-686): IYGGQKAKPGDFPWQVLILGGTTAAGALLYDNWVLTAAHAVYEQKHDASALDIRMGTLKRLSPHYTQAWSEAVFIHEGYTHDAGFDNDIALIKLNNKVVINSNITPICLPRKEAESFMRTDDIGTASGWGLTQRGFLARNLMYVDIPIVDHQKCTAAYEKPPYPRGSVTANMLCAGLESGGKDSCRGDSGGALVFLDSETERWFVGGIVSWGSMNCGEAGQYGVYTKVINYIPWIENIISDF
MASP-2 CCP2-SP, sequence (O00187 364-432 partner): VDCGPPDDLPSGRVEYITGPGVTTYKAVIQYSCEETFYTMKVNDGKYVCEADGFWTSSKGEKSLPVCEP

SMILES	Ligand-pharmacophore element distance, pharmacophore element C2	Ligand-pharmacophore element distance, pharmacophore element C3	Ligand-pharmacophore element distance, pharmacophore element C4	Ligand-pharmacophore element distance, pharmacophore element C5	Ligand-pharmacophore element distance, pharmacophore element C6	Ligand-pharmacophore element distance, pharmacophore element C7	Ligand-pharmacophore element distance, pharmacophore element CA1	Ligand-pharmacophore element distance, pharmacophore element CA2	Ligand-pharmacophore element distance, pharmacophore element CA3	Ligand-pharmacophore element distance, pharmacophore element CA4	Ligand-pharmacophore element distance, pharmacophore element CA5	Ligand-pharmacophore element distance, pharmacophore element CA6	d(CA1,O1)	d(CA1,O2)	d(H4,O1)	d(H4,O2)	d(O1,O2)	d(N2,CA2) [1]	d(O2,H3) [1]	d(O2,N2) [1]	further results
C[C@H](NC(=O)[C@H](N)C1Cc2ccccc2C1)C(=O)NCc1ccc2c(N)nccc2c1.Cl.Cl [1088_B]	1.93	0	0	0	0	0	0.62	0.2	0	0	0	0	5.22	4.78	6.73	6.06	3.02	6.13	3.82	2.68	d(N2,C2) [1]: 3.90; a(CA1, O1, O2): 99.27; a(O1, O2, H4): 153.40; a(O1, O2, H3) (Table A6-2 pharmacophore angle): 144.52; a(O1, O2, N2) (Table A6-2 pharmacophore angle): 135.22; a(O2, N2, C2) (Table A6-2 pharmacophore angle): 140.65; a(O2, N2, CA2) (Table A6-2 pharmacophore angle): 154.54; Pharmacophore torsion angle a(H4, O1, O2, H3) [2]: 45.99; Pharmacophore torsion angle a(H4, O1, O2, N2) [2]: 121.15; Pharmacophore torsion angle a(O1, H4, O2, CA1) [2]: −63.34; Pharmacophore torsion angle a(O1, O2, N2, C2) [2]: 129.99; Pharmacophore torsion angle a(O1, O2, N2, CA2) [3]: 134.51; Pharmacophore protein distance to MET_658 (first MET_658 column): 3.04; Pharmacophore protein distance to MET_658 (second MET_658 column): 3.12; Pharmacophore protein distance to GLY_528: 3.66; Pharmacophore protein distance to PHE_529: 2.75; Pharmacophore protein distance to PRO_608: 3.74; Pharmacophore protein distance to SER_611: 2.71; Pharmacophore protein distance to TRP_655: 3.75
C[C@H](NC(=O)[C@H]1C[C@@H](c2ccccc2)CN1)C(=O)NCc1ccc2c(N)nccc2c1.Cl.Cl [1089_A]	0	0	0	0	0	0	1	0.89	0	0	0	0	5.75	5.19	3.13	3.70	3.34	5.10	5.94	2.66	a(CA1, O1, O2): 98.23; a(O1, O2, H4): 122.16; a(O1, O2, H3) (Table A6-2 pharmacophore angle): 153.00; a(O1, O2, N2) (Table A6-2 pharmacophore angle): 141.72; a(O2, N2, CA2) (Table A6-2 pharmacophore angle): 154.37; Pharmacophore torsion angle a(H4, O1, O2, H3) [2]: 88.95; Pharmacophore torsion angle a(H4, O1, O2, N2) [2]: −175.67; Pharmacophore torsion angle a(O1, H4, O2, CA1) [2]: −95.88; Pharmacophore torsion angle a(O1, O2, N2, CA2) [3]: 137.41; Pharmacophore protein distance to MET_658 (first MET_658 column): 2.61; Pharmacophore protein distance to MET_658 (second MET_658 column): 3.31; Pharmacophore protein distance to GLY_528: 3.59; Pharmacophore protein distance to PHE_529: 2.81; Pharmacophore protein distance to PRO_608: 3.90; Pharmacophore protein distance to SER_611: 2.79; Pharmacophore protein distance to TRP_655: 3.57
